Experimental data: patent publication US9663473B2 (Actelion Pharmaceuticals Ltd, priority 2013, dated 2017)
Where a name gives a salt, the structure may show the parent alone.

Columns and labels:
[1] = test system: models of Alzheimer's Disease; settings: cited from earlier work
ALXR = molecular target: T1, ALXR (Homo sapiens, UniProt P25090); settings: cited from earlier work
T1 sequence (P25090 1-351): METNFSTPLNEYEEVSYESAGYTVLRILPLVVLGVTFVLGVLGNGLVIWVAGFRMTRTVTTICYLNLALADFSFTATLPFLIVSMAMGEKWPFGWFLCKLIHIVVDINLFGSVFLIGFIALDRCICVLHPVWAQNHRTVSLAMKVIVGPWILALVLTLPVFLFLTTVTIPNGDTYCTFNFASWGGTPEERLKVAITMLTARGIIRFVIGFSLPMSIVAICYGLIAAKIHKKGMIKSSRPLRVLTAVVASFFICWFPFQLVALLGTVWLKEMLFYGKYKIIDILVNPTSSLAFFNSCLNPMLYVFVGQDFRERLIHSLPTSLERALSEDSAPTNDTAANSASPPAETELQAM

[2] = test system: human fibroblast-like synoviocytes; settings: cited from earlier work
dry corneal surface = settings: topical treatment; cited from earlier work
[3] = test system: collagen-induced arthritis; settings: in vivo; cited from earlier work
[4] = molecular target: T2, recombinant human ALX receptor (Homo sapiens, UniProt P25090); experiment: Intracellular calcium measurements (FLIPR), ALX receptor agonistic activity; format: cell-based; settings: HEK293-hALXR-Gα16 cells, Fluo-4 calcium signal, normalized to WKYMVm 10 nM
T2 construct: expressed in transfected cells; host or cells: HEK293 (HEK293-hALXR-Gα16)
T2 sequence (P25090 1-351): T1 sequence (P25090 1-351)
Outline: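 HEK293 cells co-expressing human ALX receptor and Gα16 were loaded with 1 μM Fluo-4 AM for 60 min at 37° C., then exposed to serially diluted compounds on FLIPR Tetra. Peak fluorescence above baseline (ex 488/em 540 nm) was normalized to 10 nM WKYMVm as high control.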

| Molecule | EC50 [4] [nM] | other results |
| --- | --- | --- |
| humanin: high-affinity ligand for FPR2, neuroprotective in models of Alzheimer's Disease (MAPRGFSCLLLLTSEIDLPVKRRA; Humanin; UniProt Q8IVG9 1-24, looked up) |  | neuroprotection [1]: neuroprotective |
| CCCCC[C@H](O)/C=C/C=C\C=C\C=C\[C@@H](O)[C@@H](O)CCCC(=O)O [Lipoxin A4, lipoxin A4] |  | binding to ALXR (ALXR): high affinity; IL-6 expression [2]: inhibited IL-6 expression; re-epithelization and inflammation of the dry corneal surface (dry corneal surface): increases re-epithelization and decreases inflammation of the dry corneal surface |
| COC(=O)CCC[C@H](O)[C@H](O)CO [BML-111] |  | severity of collagen-induced arthritis [3]: reduced the severity of collagen-induced arthritis |
| COc1ccc(C[C@@H](NC(=O)NCc2ccccc2Cn2cncn2)c2nc3ccccc3[nH]2)cc1 [Example 31, (R)-1-(2-((1H-1,2,4-Triazol-1-yl)methyl)benzyl)-3-(1-(1H-benzo[d]imidazol-2-yl)-2-(4-methoxyphenyl)ethyl)urea] | 26 |  |
| COc1ccc(C[C@@H](NC(=O)N2CCC3CNCC32)c2nc3ccccc3[nH]2)cc1 (stereo partly drawn) [Example 127, N—((R)-1-(1H-Benzo[d]imidazol-2-yl)-2-(4-methoxyphenyl)ethyl)hexahydropyrrolo[3,4-b]pyrrole-1(2H)-carboxamide] | 246 |  |
| COc1ccc(C[C@@H](NC(=O)N[C@@H](CO)Cc2ccccc2)c2nc3ccccc3[nH]2)cc1 [Example 205, 1-((R)-1-(1H-Benzo[d]imidazol-2-yl)-2-(4-methoxyphenyl)ethyl)-3-((R)-1-hydroxy-3-phenylpropan-2-yl)urea] | 62 |  |
| O=C(N[C@H](Cc1ccc(CF)cc1)c1nc2ccccc2[nH]1)N[C@H]1CC[C@H](O)CC1 [Example 364, 1-((R)-1-(1H-Benzo[d]imidazol-2-yl)-2-(4-(fluoromethyl)phenyl)ethyl)-3-(trans-4-hydroxycyclohexyl)urea] | 10 |  |
| COc1ccc(CC(NC(=O)NC2CCCC2)c2nc3ccccc3[nH]2)cc1 (centres unmarked) [Example 12, 1-(1-(1H-Benzo[d]imidazol-2-yl)-2-(4-methoxyphenyl)ethyl)-3-cyclopentylurea] | 45 |  |
| COc1ccc(C[C@@H](NC(=O)NCc2cccnc2OCC(F)(F)F)c2nc3ccccc3[nH]2)cc1 [Example 64, (R)-1-(1-(1H-Benzo[d]imidazol-2-yl)-2-(4-methoxyphenyl)ethyl)-3-((2-(2,2,2-trifluoroethoxy)pyridin-3-yl)methyl)urea hydrochloride] | 51 |  |
| COc1ccc(CC(NC(=O)NC23CCC(O)(CC2)CC3)c2nc3ccccc3[nH]2)cc1F (single isomer, unassigned; ent-1) [Example 257, 1-(1-(1H-Benzo[d]imidazol-2-yl)-2-(3-fluoro-4-methoxyphenyl)ethyl)-3-(4-hydroxybicyclo[2.2.2]octan-1-yl)urea (ent-1)] | 2 |  |
| COc1ccc(CC(NC(=O)NCC2CCCC2)c2nc3ccccc3[nH]2)cc1 (centres unmarked) [Example 52, 1-(1-(1H-Benzo[d]imidazol-2-yl)-2-(4-methoxyphenyl)ethyl)-3-(cyclopentylmethyl)urea] | 221 |  |
| COc1ccc(CC(NC(=O)Nc2cc(C3CC3)nn2-c2ccccc2)c2nc3ccccc3[nH]2)cc1 (centres unmarked) [Example 405, 1-(1-(1H-benzo[d]imidazol-2-yl)-2-(4-methoxyphenyl)ethyl)-3-(3-cyclopropyl-1-phenyl-1H-pyrazol-5-yl)urea] | 32 |  |
